# According to PubChem BioAssay (NCI):
#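 Step 1: Grow cells in 96-well plates. Step 2: Expose to compound for 48 hours at 5 concentrations. Step 3: Interpolate endpoints linearly; if unreached, use highest concentration. GI50 = concentration required for 50% inhibition of growth. TGI: concentration producing complete growth inhibition.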
# How the values were obtained:
# Assay in all cases: NCI anticancer screen, dose series, 48 h
# [1] = system: DU-145 prostate
# [2] = system: NCI-H226 lung
# [3] = system: LOX IMVI melanoma
# [4] = system: SR leukemia
# [5] = system: HS 578T breast
# [6] = system: MCF7 breast
# [7] = system: BT-549 breast
# [8] = system: A549 NSCLC
# [9] = system: DLD-1 colon
# [10] = system: DMS 273 small cell lung
# [11] = system: SNB-78 CNS
# [12] = system: M19-MEL melanoma
SMILES,GI50 [1] [µM],TGI [1] [µM],GI50 [2] [µM],TGI [2] [µM],GI50 [3] [µM],TGI [3] [µM],GI50 [4] [µM],TGI [4] [µM],GI50 [5] [µM],TGI [5] [µM],GI50 [6] [µM],TGI [6] [µM],GI50 [7] [µM],TGI [7] [µM],GI50 [8] [µM],TGI [8] [µM],TGI [9] [µM],TGI [10] [µM],TGI [11] [µM],TGI [12] [µM]
CN1CCN(c2ccc(-c3ccc4ncc(C#N)c(Nc5ccc(F)c(Cl)c5)c4c3)cc2)CC1,0.872,4.11,10.2,34.3,2.78,11.5,2.01,6.82,2.55,9.88,3.18,14.9,3.77,17.9,2.63,26.6,–,–,–,–
COc1cc(-c2n/c(=C\c3c(O)[nH]c4ccc(Cl)cc34)cc3c2=Nc2ccccc2-3)cc(OC)c1OC,0.655,2.59,3,12,0.501,1.89,0.445,4.8,2.29,8.31,0.316,1.38,2.43,7.45,–,–,–,–,–,–
Cc1nc(Cl)c(Cl)c(Cl)n1,–,9.24,–,6.04,–,0.585,–,–,–,4.49,–,1.91,–,0.482,–,3.25,–,–,–,–
O=C(N/C(=C\c1ccccc1[N+](=O)[O-])c1nc2ccccc2[nH]1)c1ccccc1,–,–,–,–,–,–,–,> 100,–,–,–,–,–,–,–,–,> 100,> 100,> 100,> 100
CC(C)(N)CO[C@H]1C[C@H]2CC[C@@]1(C)C2(C)C,–,73.8,–,49.8,–,35.1,–,81.1,–,79,–,37.1,–,60.5,–,> 100,–,–,–,–
O=c1[nH][nH]c(=O)[nH]1,–,–,–,> 100,–,> 100,–,> 100,–,–,–,–,–,–,–,> 100,> 100,> 100,> 100,> 100
CCn1nc(C)c2c1C(=O)NC(C)C(=O)N2 (configuration not stated),–,> 100,–,–,–,–,–,–,–,> 100,–,–,–,> 100,–,> 100,–,–,–,–
